Test results taken from patent US4508719A, “Hydroxyimino and alkoxyimino derivatives of 1,4-dihydropyridine and anti-hypertensive compositions” (Pierrel S.p.A., priority 1982, dated 1985).
Like-named read-outs stand apart in the source and are kept apart here.

Experiments:
[1] = system: taenia coli of guinea pigs, depolarized, stimulated with CaCl2; experiment: Antagonistic activity to calcium in the taenia coli of guinea pigs (in vitro); format: cell-based, Hartley albino guinea pigs; settings: for IC50: Cavia porcellus, read-out: Ca--antagonistic activity in vitro ED50
Protocol: Hartley albino guinea pigs of average weight 450 g are used. […] The compounds are allowed to stand in contact with the preparation for ten minutes. The activities ED50 are calculated from the maximum percentage of inhibition.

in vivo = settings: mouse, iv
Protocol: Male CD1 mice from Charles River, weighing 25 g, are used. Compounds are administered intravenously (i.v.), dissolved in dimethylsulfoxide, and the volume of administration is 0.01 ml/10 g of body weight. The lethal dose, LD50 after seven days, is calculated according to the method of Litchfield and Wilcoxon (Exp. Ther. 96, 99 (1949)).

[2] = taenia coli, CaCl2 10^-3 M, ten minutes contact, from maximum percentage of inhibition (for 0265B, 0246B, 0247B, 0270B, 0224A independent of time of appearance)

**Q.** For `COC(=O)C1=C(C)NC(C)=C(C(C)=NOCCN(C)Cc2ccccc2)C1c1cccc([N+](=O)[O-])c1` (centres unmarked) [0224A, Methyl 2,6-dimethyl-3-[1-(2-N-benzyl-N-methylamino)ethoxy-imino]ethyl-4-(3-nitrophenyl)-1,4-dihydropyridin-5-carboxylate], which IC50 [1, 2] is on record?
**A.** Its IC50 is 18 nM.

**Q.** What about the “inhibition of contractions due to CaCl2 after repeated washing of the tissue” value (“inhibition of contractions due to CaCl2” for short) ([1]; taenia coli) of the same compound?
**A.** Its value is “increases progressively in spite of repeated washing of the tissue”.

**Q.** And the LD50 at 168 h (in vivo)?
**A.** Its LD50 at 168 h is 3.3 mg/kg.

**Q.** Which IC50 [1, 2] does the source give for `COC(=O)C1=C(C)NC(C)=C(C(C)=NO)C1c1cccc([N+](=O)[O-])c1` (centres unmarked) [0227A, Methyl 2,6-dimethyl-3-(1-hydroxyimino)ethyl-4-(3-nitrophenyl)-1,4-dihydropyridine-5-carboxylate] here?
**A.** The IC50 was 270 nM.

**Q.** And the LD50 at 168 h (in vivo)?
**A.** Its LD50 at 168 h is 15.2 mg/kg.

**Q.** With `CCOC(=O)CON=C(C)C1=C(C)NC(C)=C(C(=O)OC)C1c1cccc([N+](=O)[O-])c1` (centres unmarked) [0234A, Methyl 2,6-dimethyl-3-[1-(ethoxycarbonyl)methoxyimino]ethyl-4-(3-nitrophenyl)-1,4-dihydro-pyridin-5-carboxylate] as the compound, how does the IC50 [1, 2] read?
**A.** The IC50 was 29 nM.

**Q.** And the LD50 at 168 h (in vivo)?
**A.** The LD50 at 168 h was 17.3 mg/kg.

**Q.** Which IC50 [1, 2] does the source give for `CCON=C(C)C1=C(C)NC(C)=C(C(=O)OC)C1c1cccc([N+](=O)[O-])c1` (centres unmarked) [0235A, Methyl 2,6-dimethyl-3-(1-ethoxyimino)ethyl-4-(3-nitrophenyl)-1,4-dihydropyridin-5-carboxylate] here?
**A.** The IC50 was 7.4 nM.

**Q.** What about the LD50 at 168 h (in vivo) of the same compound?
**A.** The LD50 at 168 h was 30.6 mg/kg.

**Q.** Which results are given for `C=CCON=C(C)C1=C(C)NC(C)=C(C(=O)OC)C1c1cccc([N+](=O)[O-])c1` (centres unmarked) [0245B]?
**A.** IC50 [1, 2]: 4.7 nM; LD50 at 168 h (in vivo): 35.4 mg/kg

**Q.** Which results are given for `CCCCON=C(C)C1=C(C)NC(C)=C(C(=O)OC)C1c1cccc([N+](=O)[O-])c1` (centres unmarked) [0246B]?
**A.** IC50 [1, 2]: 7 nM; inhibition of contractions due to CaCl2 after repeated washing of the tissue ([1]; taenia coli): increases progressively in spite of repeated washing of the tissue; LD50 at 168 h (in vivo): 37.5 mg/kg

**Q.** Which IC50 [1, 2] does the source give for `COC(=O)C1=C(C)NC(C)=C(C(C)=NOCc2ccccc2)C1c1cccc([N+](=O)[O-])c1` (centres unmarked) [0247B] here?
**A.** The IC50 was 4.8 nM.

**Q.** And the “inhibition of contractions due to CaCl2” value ([1]; taenia coli)?
**A.** Its value is “increases progressively in spite of repeated washing of the tissue”.

**Q.** What about the LD50 at 168 h (in vivo) of the same compound?
**A.** Its LD50 at 168 h is 28.9 mg/kg.

**Q.** Which results are given for `CON=C(C)C1=C(C)NC(C)=C(C(=O)OC)C1c1cccc([N+](=O)[O-])c1` (centres unmarked) [0251A, Methyl 2,6-dimethyl-3-(1-methoxyimino)ethyl-4-(3-nitrophenyl)-1,4-dihydropyridin-5-carboxylate]?
**A.** IC50 [1, 2]: 26 nM; LD50 at 168 h (in vivo): 27.3 mg/kg

**Q.** Which results are given for `CCOCCON=C(C)C1=C(C)NC(C)=C(C(=O)OC)C1c1cccc([N+](=O)[O-])c1` (centres unmarked) [0254B]?
**A.** IC50 [1, 2]: 5.9 nM; LD50 at 168 h (in vivo): 35 mg/kg

**Q.** With `COC(=O)C1=C(C)NC(C)=C(C(C)=NOC(C)C)C1c1cccc([N+](=O)[O-])c1` (centres unmarked) [0265B] as the compound, how does the IC50 [1, 2] read?
**A.** Its IC50 is 4.4 nM.

**Q.** What about the “inhibition of contractions due to CaCl2” value ([1]; taenia coli) of the same compound?
**A.** The value was “increases progressively in spite of repeated washing of the tissue”.

**Q.** What about the LD50 at 168 h (in vivo) of the same compound?
**A.** The LD50 at 168 h was 27.6 mg/kg.

**Q.** With `COC(=O)C1=C(C)NC(C)=C(C(C)=NOC2CCCC2)C1c1cccc([N+](=O)[O-])c1` (centres unmarked) [0270B] as the compound, how does the IC50 [1, 2] read?
**A.** The IC50 was 5.6 nM.

**Q.** And the “inhibition of contractions due to CaCl2” value ([1]; taenia coli)?
**A.** The value was “increases progressively in spite of repeated washing of the tissue”.

**Q.** What about the LD50 at 168 h (in vivo) of the same compound?
**A.** Its LD50 at 168 h is 70.3 mg/kg.

**Q.** With `COC(=O)C1=C(C)NC(C)=C(C(C)=NOCCN(C)C)C1c1cccc([N+](=O)[O-])c1` (centres unmarked) [0274B] as the compound, how does the IC50 [1, 2] read?
**A.** Its IC50 is 510 nM.

**Q.** And the LD50 at 168 h (in vivo)?
**A.** The LD50 at 168 h was 38.3 mg/kg.

**Q.** Which results are given for `COC(=O)C1=C(C)NC(C)=C(C(C)=NOCCN2CCCCC2)C1c1cccc([N+](=O)[O-])c1` (centres unmarked) [0276B]?
**A.** IC50 [1, 2]: 220 nM; LD50 at 168 h (in vivo): 22.7 mg/kg

**Q.** For `CCOCCON=C(COC)C1=C(C)NC(C)=C(C(=O)OC)C1c1cccc([N+](=O)[O-])c1` (centres unmarked) [0286C], which IC50 [1, 2] is on record?
**A.** The IC50 was 370 nM.

**Q.** And the LD50 at 168 h (in vivo)?
**A.** The LD50 at 168 h was > 160 mg/kg.

**Q.** With `COC(=O)C1=C(C)NC(C)=C(C(=O)OCCN(C)Cc2ccccc2)C1c1cccc([N+](=O)[O-])c1` (centres unmarked) [Nicardipine, reference compound] as the compound, how does the IC50 [1, 2] read?
**A.** Its IC50 is 2.3 nM.

**Q.** What about the LD50 at 168 h (in vivo) of the same compound?
**A.** The LD50 at 168 h was 17.4 mg/kg.

**Q.** Which IC50 [1] does the source give for `COC(=O)C1=C(C)NC(C)=C(C(=O)OC)C1c1ccccc1[N+](=O)[O-]` [Nifedipine, reference compound] here?
**A.** The IC50 was 2.6 nM.

**Q.** What does the source list for `CCOC(=O)C1=C(C)NC(C)=C(C(=O)OC)C1c1cccc([N+](=O)[O-])c1` (centres unmarked) [Nitrendipine, reference compound]?
**A.** IC50 [1, 2]: 1.9 nM; LD50 at 168 h (in vivo): 34.5 mg/kg
